Reference: PubChem BioAssay (NCI)
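Dose response: 5 concentrations. Exposure: 48 h. Format: 96-well plates. Endpoint: linear interpolation; highest concentration if not reached. TGI marks complete inhibition of growth.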

Tests used:
Assay in all cases: inhibition of tumour cell growth, NCI panel, 48 h
[1] = tested on: OVCAR-3 ovarian
[2] = tested on: SK-MEL-28 melanoma
[3] = tested on: TK-10 renal
[4] = tested on: PC-3 prostate
[5] = tested on: MDA-N
[6] = tested on: HCT-15 colon
[7] = tested on: HT29 colon
[8] = tested on: NCI/ADR-RES ovarian
[9] = tested on: MOLT-4 leukemia
[10] = tested on: UACC-257 melanoma
[11] = tested on: UACC-62 melanoma
[12] = tested on: M14 melanoma
[13] = tested on: OVCAR-5 ovarian
[14] = tested on: HL-60(TB) leukemia
[15] = tested on: NCI-H522 lung
[16] = tested on: OVCAR-4 ovarian
[17] = tested on: HCC-2998 colon
[18] = tested on: A549 NSCLC
[19] = tested on: ACHN renal
[20] = tested on: MDA-MB-231 breast
[21] = tested on: SF-295 CNS
[22] = tested on: RPMI-8226 leukemia
[23] = tested on: LOX IMVI melanoma
[24] = tested on: COLO 205 colon
[25] = tested on: K-562 leukemia
[26] = tested on: SK-MEL-5 melanoma
[27] = tested on: T-47D breast
[28] = tested on: SNB-19 CNS
[29] = tested on: NCI-H226 lung
[30] = tested on: CAKI-1 renal
[31] = tested on: HOP-92 NSCLC
[32] = tested on: KM12 colon
[33] = tested on: SR leukemia
[34] = tested on: EKVX NSCLC
[35] = tested on: MALME-3M melanoma
[36] = tested on: U251 CNS
[37] = tested on: NCI-H23 lung
[38] = tested on: SK-OV-3 ovarian
[39] = tested on: SK-MEL-2 melanoma
[40] = tested on: 786-0 renal
[41] = tested on: IGROV1 ovarian
[42] = tested on: RXF 393 renal
[43] = tested on: HOP-62 NSCLC
[44] = tested on: MDA-MB-435
[45] = tested on: A498 renal
[46] = tested on: SF-268 CNS
[47] = tested on: MCF7 breast
[48] = tested on: SW-620 colon
[49] = tested on: BT-549 breast
[50] = tested on: OVCAR-8 ovarian
[51] = tested on: HCT-116 colon
[52] = tested on: SN12C renal
[53] = tested on: UO-31 renal
[54] = tested on: DU-145 prostate
[55] = tested on: HS 578T breast
[56] = tested on: NCI-H460 lung
[57] = tested on: SNB-75 CNS
[58] = tested on: SF-539 CNS
[59] = tested on: CCRF-CEM leukemia

## Oc1ccc2c3c1OC1c4[nH]c5c(c4CC4(O)C(C2)N(CC2CC2)CC[C@]314)CC1(O)C2Cc3ccc(O)c4c3[C@@]1(CCN2CC1CC1)C5O4 (some centres undefined)
[1]
  TGI: 35.8 µM
[2]
  TGI: 41.4 µM
[3]
  TGI: 44.6 µM
[4]
  TGI: > 100 µM
[5]
  TGI: 38.9 µM
[6]
  TGI: > 100 µM
[7]
  TGI: 38.3 µM
[8]
  TGI: > 100 µM
[9]
  TGI: 53.9 µM
[10]
  TGI: 37.4 µM
[11]
  TGI: 43.7 µM
[12]
  TGI: 32 µM
[13]
  TGI: 74.9 µM
[14]
  TGI: 41.4 µM
[15]
  TGI: 49.3 µM
[16]
  TGI: 90.5 µM
[17]
  TGI: 36.7 µM
[18]
  TGI: 37.6 µM
[19]
  TGI: > 100 µM
[20]
  TGI: 46.1 µM
[21]
  TGI: 40 µM
[22]
  TGI: 60.8 µM
[23]
  TGI: 83.2 µM
[24]
  TGI: 35.6 µM
[25]
  TGI: 63.9 µM
[26]
  TGI: > 100 µM
[27]
  TGI: 47.6 µM
[28]
  TGI: 64 µM
[29]
  TGI: 88.7 µM
[30]
  TGI: > 100 µM
[31]
  TGI: 85 µM
[32]
  TGI: 32.2 µM
[33]
  TGI: 57.5 µM
[34]
  TGI: 99.3 µM
[35]
  TGI: 31.6 µM
[36]
  TGI: 34.6 µM
[37]
  TGI: > 100 µM
[38]
  TGI: > 100 µM
[39]
  TGI: 44.8 µM
[40]
  TGI: 46 µM
[41]
  TGI: > 100 µM
[42]
  TGI: 82.2 µM
[43]
  TGI: > 100 µM
[44]
  TGI: 37.6 µM
[45]
  TGI: 32.4 µM
[46]
  TGI: 49.4 µM
[47]
  TGI: > 100 µM
[48]
  TGI: 53.8 µM
[49]
  TGI: > 100 µM
[50]
  TGI: > 100 µM
[51]
  TGI: 33 µM
[52]
  TGI: > 100 µM
[53]
  TGI: > 100 µM
[54]
  TGI: > 100 µM

## O=C(O)CCCC#CCCCC(=O)O
[1]
  TGI: > 100 µM
[2]
  TGI: > 100 µM
[3]
  TGI: > 100 µM
[4]
  TGI: > 100 µM
[55]
  TGI: > 100 µM
[5]
  TGI: > 100 µM
[6]
  TGI: > 100 µM
[7]
  TGI: > 100 µM
[8]
  TGI: > 100 µM
[10]
  TGI: > 100 µM
[11]
  TGI: > 100 µM
[12]
  TGI: > 100 µM
[13]
  TGI: > 100 µM
[15]
  TGI: > 100 µM
[16]
  TGI: > 100 µM
[17]
  TGI: > 100 µM
[18]
  TGI: > 100 µM
[56]
  TGI: > 100 µM
[19]
  TGI: > 100 µM
[57]
  TGI: > 100 µM
[21]
  TGI: > 100 µM
[58]
  TGI: > 100 µM
[23]
  TGI: > 100 µM
[24]
  TGI: > 100 µM
[25]
  TGI: > 100 µM
[26]
  TGI: > 100 µM
[27]
  TGI: > 100 µM
[28]
  TGI: > 100 µM
[30]
  TGI: > 100 µM
[31]
  TGI: > 100 µM
[32]
  TGI: > 100 µM
[33]
  TGI: > 100 µM
[34]
  TGI: > 100 µM
[35]
  TGI: > 100 µM
[36]
  TGI: > 100 µM
[37]
  TGI: > 100 µM
[38]
  TGI: > 100 µM
[39]
  TGI: > 100 µM
[40]
  TGI: > 100 µM
[41]
  TGI: > 100 µM
[42]
  TGI: > 100 µM
[43]
  TGI: > 100 µM
[44]
  TGI: > 100 µM
[45]
  TGI: > 100 µM
[46]
  TGI: > 100 µM
[47]
  TGI: > 100 µM
[50]
  TGI: > 100 µM
[51]
  TGI: > 100 µM
[52]
  TGI: > 100 µM
[53]
  TGI: > 100 µM
[54]
  TGI: > 100 µM

## CC(C)[C@H](NC(=O)[C@@H](O)[C@H](N)Cc1ccccc1)C(=O)N[C@@H](Cc1ccccc1)C(=O)O
[1]
  TGI: > 100 µM
[2]
  TGI: > 100 µM
[3]
  TGI: > 100 µM
[4]
  TGI: > 100 µM
[55]
  TGI: > 100 µM
[5]
  TGI: > 100 µM
[6]
  TGI: > 100 µM
[8]
  TGI: > 100 µM
[9]
  TGI: > 100 µM
[10]
  TGI: > 100 µM
[11]
  TGI: > 100 µM
[12]
  TGI: > 100 µM
[13]
  TGI: > 100 µM
[14]
  TGI: > 100 µM
[59]
  TGI: > 100 µM
[15]
  TGI: > 100 µM
[16]
  TGI: > 100 µM
[17]
  TGI: > 100 µM
[18]
  TGI: > 100 µM
[56]
  TGI: > 100 µM
[19]
  TGI: > 100 µM
[20]
  TGI: > 100 µM
[57]
  TGI: > 100 µM
[21]
  TGI: > 100 µM
[22]
  TGI: > 100 µM
[23]
  TGI: > 100 µM
[24]
  TGI: > 100 µM
[25]
  TGI: > 100 µM
[26]
  TGI: > 100 µM
[27]
  TGI: > 100 µM
[28]
  TGI: > 100 µM
[29]
  TGI: > 100 µM
[30]
  TGI: > 100 µM
[31]
  TGI: > 100 µM
[32]
  TGI: > 100 µM
[33]
  TGI: > 100 µM
[34]
  TGI: > 100 µM
[35]
  TGI: > 100 µM
[36]
  TGI: > 100 µM
[37]
  TGI: > 100 µM
[38]
  TGI: > 100 µM
[39]
  TGI: > 100 µM
[40]
  TGI: > 100 µM
[41]
  TGI: > 100 µM
[43]
  TGI: > 100 µM
[44]
  TGI: > 100 µM
[45]
  TGI: > 100 µM
[46]
  TGI: > 100 µM
[47]
  TGI: > 100 µM
[48]
  TGI: > 100 µM
[50]
  TGI: > 100 µM
[51]
  TGI: > 100 µM
[52]
  TGI: > 100 µM
[53]
  TGI: > 100 µM
[54]
  TGI: > 100 µM

## Cc1cc2nc3c(C#N)c(-c4ccccc4)cc(Nc4cccc(C(F)(F)F)c4)n3c2cc1C
[1]
  TGI: 8.41 µM
[2]
  TGI: 50.6 µM
[3]
  TGI: 33.6 µM
[4]
  TGI: 16 µM
[5]
  TGI: 24.7 µM
[6]
  TGI: 22.3 µM
[8]
  TGI: 20.2 µM
[10]
  TGI: 54.3 µM
[12]
  TGI: 60.3 µM
[13]
  TGI: 47.1 µM
[59]
  TGI: > 100 µM
[15]
  TGI: 30.1 µM
[16]
  TGI: 50.5 µM
[17]
  TGI: 14.3 µM
[18]
  TGI: 16.8 µM
[56]
  TGI: 11.5 µM
[19]
  TGI: 28.5 µM
[20]
  TGI: 16.2 µM
[57]
  TGI: 72.9 µM
[21]
  TGI: 44.6 µM
[58]
  TGI: 13.6 µM
[22]
  TGI: > 100 µM
[23]
  TGI: > 100 µM
[24]
  TGI: > 100 µM
[25]
  TGI: 1.2 µM
[26]
  TGI: 19.8 µM
[27]
  TGI: > 100 µM
[28]
  TGI: 80.7 µM
[29]
  TGI: 26.5 µM
[30]
  TGI: 40.2 µM
[32]
  TGI: > 100 µM
[34]
  TGI: 37.9 µM
[35]
  TGI: > 100 µM
[37]
  TGI: > 100 µM
[38]
  TGI: 44 µM
[39]
  TGI: 12.7 µM
[40]
  TGI: 18.6 µM
[42]
  TGI: 22.9 µM
[43]
  TGI: 35.2 µM
[44]
  TGI: 30.6 µM
[45]
  TGI: 29.5 µM
[46]
  TGI: 61.2 µM
[47]
  TGI: 22.5 µM
[48]
  TGI: 20.7 µM
[49]
  TGI: > 100 µM
[50]
  TGI: > 100 µM
[51]
  TGI: 10.8 µM
[52]
  TGI: 25.2 µM
[53]
  TGI: 25.8 µM
